The term mass density denotes mass per unit of volume. The term vapor or sublimation pressure denotes the equilibrium pressure above the liquid or solid.

The conditions of this data set: Liquid; for mass density: 298.15 K, 101.33 kPa.

± gives the expanded uncertainty stated by the source.

As to `C1COCCO1` [1,4-dioxane], the mass density is given as 1027.85 ± 0.23 kg/m3. Further, the “vapor or sublimation pressure” value (375.52 K) is 101.3 ± 4.1 kPa.
For `c1ccccc1` [benzene], the mass density was 873.55 ± 0.22 kg/m3. For the same molecule, the “vapor or sublimation pressure” value (353.2 K) was found to be 101.3 ± 4.1 kPa.
Turning to `C1CCCCC1` [cyclohexane], the mass density came to 773.65 ± 0.32 kg/m3. For the same molecule, the “vapor or sublimation pressure” value (353.85 K) was 101.3 ± 4.1 kPa.
Consider `C1CCCC1` [cyclopentane], for which the mass density was 739.74 ± 0.79 kg/m3. In addition, the “vapor or sublimation pressure” value (322.4 K) worked out at 101.3 ± 4.1 kPa.

These data come from the NIST ThermoML archive (doi:10.1016/j.fluid.2005.09.010).
